Results as given in ChEMBL document CHEMBL3507680, “University of Dundee, Gates Library screen for HepG2 cell viability”.

Test: Human HepG2 cell viability assay in 384 well format
Type: toxicity, cell-based
Parameters: dose 125 nL, time 70.5 hour; concentration not given beside the values
Details: HepG2 cells, read-out: Inhibition

In order of rising cytotoxicity at 70.5 h:
1. O=C(O)CCc1cc2n(n1)CCCN(C(=O)c1ccc(Cl)s1)C2  -22.4%
2. Cc1cc(C)n(CC2CCCCN2C(=O)c2ccc3[nH]nnc3c2)n1 (stereo not drawn)  -17.7%
3. COC(C)(C)C(=O)NCC1CCN(Cc2cc3ccccc3[nH]2)C1 (stereo not drawn)  -17.4%
4. COc1ccc(CNC2CCc3ncnn3C2)cc1OCC1CC1 (stereo not drawn)  -14.4%
5. O=C(c1ccncc1)N1CCc2ncnc(C3CC3)c2CC1  -14.3%
6. CC1CCN(CCCNS(=O)(=O)c2cccc(F)c2)CC1  -13.7%
7. COc1ccc(NC2(C(=O)N3CCCn4cncc4C3)CCCC2)cc1  -13%
8. CC1CCCCN1CCNC(=O)c1scnc1Cl (stereo not drawn)  -12.6%
9. Cn1ccc(C(=O)N2C[C@@H]3OCCN(c4ncccn4)[C@@H]3C2)n1  -12.1%
10. O=C1CCSCC(C(=O)NCc2nc(-c3ccccc3)no2)N1 (stereo not drawn)  -11.9%
11. N#Cc1cc(NC(=O)c2ccsc2)ccc1N1CCC(O)CC1  -11.8%
12. COC(=O)c1c(C(F)(F)F)cnc(OC)c1Cl  -11.7%
13. c1ccc(-c2noc(CN3CCCC(Cn4cncn4)C3)n2)nc1 (stereo not drawn)  -11.5%
14. CCCC(C#N)NC(=O)c1cc(Br)c2c(c1)OCCO2 (stereo not drawn)  -11.4%
15. Cc1scc(C(=O)N2CCC3(CCCN(C)C3=O)C2)c1-c1ccccc1 (stereo not drawn)  -11.2%
16. Cc1ccc(NC(=O)NCC(c2cnn(C)c2)N(C)C)c(C)c1 (stereo not drawn)  -11%
17. Cc1ccc(NC2CCN(C(=O)c3c(C)oc(C)c3C)CC2)nn1  -10.8%
18. N#CC(NC(=O)CS(=O)(=O)C1CCCC1)c1ccc(F)cc1F (stereo not drawn)  -10.4%
19. CCOC(=O)CCNC(=O)N1CCN(c2nc3ccccc3n2C)CC1  -9.85%
20. Cc1ccc(C2(O)CCN(Cc3nc(C)n4ccccc34)CC2)nc1  -9.79%
21. COCc1cnc2n1CCN(C(=O)c1cnc3ccccc3c1)C2C (stereo not drawn)  -9.53%
22. CS(=O)(=O)NCCCSCc1cccc2cccnc12  -9.28%
23. COCCCn1ccc(NC(=O)NCCn2ccnc2)n1  -8.92%
24. CN(C)c1ccc(C(=O)NCC2(O)CCOCC2)cc1  -8.78%
25. COc1cc(N2C[C@H]3CCC[C@@H](CN4CCOCC4)[C@H]3C2)ncn1  -8.48%
26. CN(CCCNC(=O)NCc1ccncc1)CC(F)(F)F  -8.47%
27. CCCNc1ncc(C2CC(=O)NCc3nc4ccccn4c32)cn1 (stereo not drawn)  -8.46%
28. COC(=O)C(NC(=O)C1CCC1)c1cc(F)ccc1F (stereo not drawn)  -7.83%
29. CS(=O)(=O)NC[C@H]1Cn2c(-c3ccc(Cl)cc3)cnc2CO1  -7.36%
30. O=C(COc1coc(CN2CCCC2)cc1=O)Nc1ccc(Cl)c(Cl)c1  -7.3%
31. CN(C)C1Cc2ccccc2N(S(=O)(=O)c2ccc(C#N)cc2)C1 (stereo not drawn)  -7.27%
32. O=C(CCSc1ccc(F)cc1)NS(=O)(=O)c1ccc2c(c1)OCCO2  -6.96%
33. CC(C)Cc1noc(CC2CCS(=O)(=O)C2)n1 (stereo not drawn)  -6.88%
34. O=C(c1cscn1)N1CCC(O)(Cn2ccc3ccncc32)CC1  -6.76%
35. CN(CCc1cnn(C)c1)C(=O)Cn1c(=O)[nH]c2ccccc21  -6.43%
36. CCOc1cc(CN(C)CCC#N)ccc1OC(F)F  -5.38%
37. Cc1ncnc2c1CCN(C(=O)c1cccn1C)CC2  -5.38%
38. O=C(O)c1ccccc1CN1CCC2(Cc3ccccc3CNC2=O)C1 (stereo not drawn)  -5.35%
39. Cc1nc(-c2ccncc2)ncc1C(C)NC(=O)CN1CCOC1=O (stereo not drawn)  -5.31%
40. CCc1cc(=O)n(CC(=O)N2CCCC2)c(-c2ccccc2)n1  -5.29%
41. COc1ccc(C(=O)N2CCCS2(=O)=O)cc1  -5.25%
42. Cc1ccc(C(=O)N2CCC3(CCN(Cc4ccccn4)C3=O)C2)cn1 (stereo not drawn)  -5.23%
43. O=C(c1ccnnc1)N1CC2(CCN(c3ncccn3)C2)C1  -5.07%
44. Cc1ccc(CN2CCOC3(CCCN(C(=O)c4ccco4)C3)C2)o1 (stereo not drawn)  -5.05%
45. c1cnc2c(c1)nc1n2[C@@H](CNC2CCOCC2)COC1  -4.98%
46. COc1ccc(C(=O)NCC(c2cccn2C)N2CCN(C)CC2)cc1 (stereo not drawn)  -4.93%
47. COC(=O)C(C)N1CCCc2cc(OC)ccc2C1 (stereo not drawn)  -4.67%
48. O=C(NCc1cccnc1-n1cncn1)C1CC2(CCNCC2)CN1 (stereo not drawn)  -4.56%
49. CCOCC1CN(C(=O)N2CCCC2)Cc2cnn(CC)c21 (stereo not drawn)  -4.21%
50. CCCn1ncnc1C(C)NC(=O)C1CCN(C(=O)C2CC2)CC1 (stereo not drawn)  -3.95%
51. Cc1nc(C(=O)N2CCCC2c2c(C)nn(C)c2C)cs1 (stereo not drawn)  -3.9%
52. CC(OCC1CC1)C(=O)N1CCCN(c2nc3ccccc3[nH]2)CC1 (stereo not drawn)  -3.86%
53. CC(C)NC1CCc2[nH]c(=O)ccc2C1 (stereo not drawn)  -3.78%
54. CCC1CCCCN1C(=O)Cn1nc(-c2cc(C)oc2C)cc(N)c1=O (stereo not drawn)  -3.58%
55. CCN(Cc1noc(CC(C)C)n1)Cc1ncccc1C(=O)O  -3.41%
56. CN(C)CCN(Cc1cccc(C(F)(F)F)c1)C(=O)c1cc[nH]n1  -3.41%
57. N#Cc1ccnc(N2CCN(C(=O)c3ccc4c(c3)CCO4)CC2)c1  -3.35%
58. CN1Cc2ccccc2CC2(CCN(Cc3nccn3C)CC2)C1=O  -3.31%
59. Cc1nnc(N2CCCC(C(=O)c3cccc(Cl)c3)C2)o1 (stereo not drawn)  -3.19%
60. O=S(=O)(NCC1(O)CCOCC1)c1c(F)cccc1F  -2.88%
61. CC(C)NC(=O)[C@H]1CCS(=O)(=O)[C@@H]2CN(c3ncc(F)cn3)C[C@H]12  -2.87%
62. CCO[C@@H]1CC[C@H]2[C@H]1OCCN2C(=O)CC1=CCCCC1  -2.71%
63. CN(CCN1CCCCCC1)C(=O)c1c(O)cccc1O  -2.54%
64. CN(Cc1ccc(F)cc1)CC1(O)CCN(C(=O)c2ccccc2)C1 (stereo not drawn)  -2.54%
65. CC(C)(C)OC(=O)Cn1nc(C2CC2)cc(C(F)(F)F)c1=O  -2.4%
66. CC(c1nc(-c2ccccc2)no1)N1CCc2c(ncn2C2CC2)C1 (stereo not drawn)  -2.24%
67. CCNC(=O)c1cnc(Sc2nccn2C)c(Cl)c1  -2.03%
68. Cc1nc(N)c2ccc(C3CCCCN3)nc2n1 (stereo not drawn)  -1.97%
69. Cc1nn(C)c(C)c1C(C)NCc1ccc(OC(C)C)cc1 (stereo not drawn)  -1.94%
70. NC(=O)C1CCN(CCc2ccc(NC(=O)C3CCC3)cc2)CC1  -1.87%
71. CCc1cnc(CNC(=O)NCCc2ccc(O)cc2)s1  -1.61%
72. CS(=O)(=O)CCCSc1n[nH]c(-c2ccc3c(c2)CCC3)n1  -1.26%
73. CC(C)Nc1cccc(C(=O)NCC(O)c2ccc(F)cc2F)c1 (stereo not drawn)  -1.19%
74. O=C1N(Cc2cccc(F)c2F)CCCC1(O)CN1CCCOCC1 (stereo not drawn)  -1.1%
75. CN(Cc1cc(Br)cn1C)C(=O)c1cscn1  -0.963%
76. Cc1ccn2ncc(C(=O)N3CCCC(n4cccn4)C3)c2n1 (stereo not drawn)  -0.891%
77. CC(C)(C)C(=O)NCCC(=O)N1CCC(Nc2cccnn2)CC1  -0.84%
78. Cc1cnn(CCC(=O)N2CCN(c3ncccc3Cl)CC2)c1  -0.781%
79. Cc1nc(NC(=O)CCN2C(=O)c3ccccc3NC2C(C)C)sc1C (stereo not drawn)  -0.712%
80. CNC(=O)c1cccc(NC(=O)c2ccnc(N(C)C)c2)c1C  -0.673%
81. CNC(=O)[C@@H]1CCO[C@@H]2CCN(C3CCOCC3)C[C@@H]21  -0.345%
82. N#Cc1cnn(-c2ccc(C(=O)N(C3CCCCC3)C3CC3)cc2)c1N  -0.0932%
83. Cn1ccc2c(C(=O)NCC3(C(N)=O)CCOCC3)cccc21  1.25%
84. O=C1N(Cc2ccc(F)c(F)c2)CCCC12CCN(C1CCCCC1)C2 (stereo not drawn)  1.47%
85. CS(=O)(=O)c1cnc(C2CCCC2)nc1C1CCCNC1 (stereo not drawn)  1.49%
86. C=C(C)Cn1nc(C)c(CN2CCN(C3CCCCC3)C(=O)C2)c1C  1.66%
87. COc1ccccc1N1CCC(CNCc2ccc(C#N)cc2)C1 (stereo not drawn)  2.02%
88. O=C(NCC1CCC2(CCNCC2)O1)C1CC1 (stereo not drawn)  2.18%
89. CCNC(c1cccnc1)c1cc(C)cc(C)c1 (stereo not drawn)  2.24%
90. Cc1nc(C2CCN(C(=O)c3ccc(=O)n(C)c3)CC2)c2sccn12  2.35%
91. CN1C(=O)CCc2cc(NC(=O)C3CC(=O)N(CC4CC4)C3)ccc21 (stereo not drawn)  2.59%
92. CC1CCCCN1c1nc2c(c(=O)[nH]1)CCN(Cc1ccccn1)C2 (stereo not drawn)  3.45%
93. CC(C)N1CCC(O)(CNC(=O)CC2OCCc3ccccc32)CC1 (stereo not drawn)  4.01%
94. CCCn1ncc2c(C(=O)Nc3cnn(CC)c3C)cc(C3CC3)nc21  5.37%
95. O=C1[C@H]2CN(Cc3ccc(F)cc3)C[C@H]2CN1CCN1CCCC1  12.5%
96. Cc1n[nH]c(C)c1NC(=O)Nc1cccnc1N1CCCC1  12.8%
97. CC(=O)Nc1cc(C(=O)Nc2cc(CC(C)(C)C)nn2C)ccc1F  14.4%
98. COc1cccc(N2CCN(CCC(=O)NC3CCCCC3)CC2)c1  16.7%
99. O=C(CCCc1cn[nH]c1)N1C[C@@H](CN2CCOCC2)[C@@H](CO)C1  17.7%
100. CCN(CC)C(=O)[C@@H]1C[C@H](N)CN1c1nnc(-c2ccccc2)s1  18.2%
101. O=C(c1[nH]nc(C2CC2)c1Cl)N1CCN(S(=O)(=O)c2ccccc2)CC1  18.5%
102. COc1cc(CN2C[C@H](OC)[C@]3(CCCO3)C2)ccc1F  19.1%
103. O=C(NCC(CO)Cc1cccc(OC(F)(F)F)c1)c1cnccn1 (stereo not drawn)  19.2%
104. CSCC[C@@H]1CN2CCC[C@H]2CN1Cc1cn(C)nc1C  19.2%
105. OCC(O)CSCc1ccc(F)cc1Cl (stereo not drawn)  19.6%
106. COc1ccc(-c2cnc(CN3CCn4c(C)nnc4C3)o2)cc1  22.7%
107. Cc1nc(N(C)C)nc(NCCc2c[nH]cn2)c1C  23.7%
108. Cc1nc(C)n(C2CCCN(C(=O)c3csc(C(C)C)n3)C2)n1 (stereo not drawn)  23.9%
109. CCc1nc(CN2CCCN(c3nn4cc(C)nc4s3)CC2)no1  23.9%
110. CC(C)N(C)C(=O)C1=NOC2(CCN(C(=O)c3cccn3C)C2)C1 (stereo not drawn)  24.9%
111. CS(=O)(=O)NCCCN1CCCCC1c1cc2ccccc2[nH]1 (stereo not drawn)  33.9%
112. Cn1ccnc1-c1cn(CCc2nnc(N)s2)nn1  43.6%
113. Cn1cc(CN2C[C@@H]3COC[C@H](C(=O)Nc4cccnc4)[C@@H]3C2)cn1  44.2%
